In US20100173888A1 (Pfizer Inc, priority 2008, published 2010) one finds IC50 data, which are given here for 37 compounds.

What is called IC50 is the point on the concentration scale where inhibition reaches its midpoint.

Chain of human recombinant H-PGDS (O60760 whole entry): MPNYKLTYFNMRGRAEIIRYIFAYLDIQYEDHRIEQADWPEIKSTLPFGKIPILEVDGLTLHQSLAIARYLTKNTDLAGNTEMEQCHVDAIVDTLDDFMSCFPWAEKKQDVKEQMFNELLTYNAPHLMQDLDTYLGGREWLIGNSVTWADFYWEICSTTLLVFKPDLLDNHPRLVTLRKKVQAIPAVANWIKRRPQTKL

The assay deals with human recombinant H-PGDS (Homo sapiens, UniProt O60760). Nature of the assay: Slightly modified fluorescence intensity h-PGDS TBA enzyme assay (1:40,000 enzyme, 40 second reaction, 1/2 log dilutions, top concentration typically 10 μM). The assay is classed as biochemical. Particulars: slightly modified assay: 1:40,000 human recombinant H-PGDS. In outline:
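Enzyme pre-incubated 10 min at room temperature with inhibitor in 100 mM Trizma pH 8.0, 100 μM MgCl2, 0.1 mg/ml rabbit IgG, 2.5 mM glutathione, 0.5% DMSO; reaction started with 5.0 μM PGH2 and stopped with FeCl2/citric acid. Remaining PGH2 quantified as MDA–TBA fluorescence (ex 530/em 560 nm); IC50 from 4-parameter fit, 11 concentrations in duplicate.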
As for `O=C(NC1CCC(c2ncc[nH]2)CC1)c1ccc(-c2cccc(F)c2)nc1` (single isomer, unassigned) [Example 64, 6-(3-Fluorophenyl)-N-[4-(1H-imidazol-2-yl)cyclohexyl]nicotinamide], the IC50 was 0.0062 µM. To `CSc1nccn1C1CCC(NC(=O)c2ccc(-c3cccc(F)c3)nc2)CC1` (stereo not shown) [Example 45, 6-(3-Fluorophenyl)-N-{4-[2-(methylthio)-1H-imidazol-1-yl]cyclohexyl}nicotinamide] belongs 0.0105 µM. To `CO[C@H]1CC[C@H](NC(=O)c2ccc(-c3cccc(F)c3)nc2)CC1` [Example 83, 6-(3-Fluorophenyl)-N-(trans-4-methoxycyclohexyl)nicotinamide] belongs 0.00693 µM; to `CCN1CCC(NC(=O)[C@@H]2CCC[C@H](NC(=O)c3ccc(-c4cccc(F)c4)nc3)C2)CC1` (relative stereo) [Example 64M, N-{cis-3-[(1-ethylpiperidin-4-yl)carbamoyl]cyclohexyl}-6-(3-fluorophenyl)nicotinamide], 0.509 µM; to `CN1CCN(C(=O)[C@H]2CC[C@@H](NC(=O)c3ccc(-c4cccc(F)c4)nc3)CC2)CC1` [Example 72, 6-(3-Fluorophenyl)-N-{cis-4-[(4-methylpiperazin-1-yl)carbonyl]cyclohexyl}nicotinamide], 0.0232 µM. To `O=C(N[C@H]1CCC[C@@H](C(=O)N[C@@H]2CCOC2)C1)c1ccc(-c2cccc(F)c2)nc1` (mixture of isomers) [Example 64K, 6-(3-fluorophenyl)-N-{cis-3-[(3R)-tetrahydrofuran-3-ylcarbamoyl]cyclohexyl}nicotinamide] belongs 0.0109 µM. Turning to `O=C(NC1CCCc2cccnc21)c1ccc(-c2cccc(F)c2)nc1` (stereo not shown) [Example 128, 6-(3-Fluorophenyl)-N-(5,6,7,8-tetrahydroquinolin-8-yl)nicotinamide], the IC50 stood at 0.179 µM.

On to `O=C(N[C@H]1CCC[C@@H](C(=O)NCCN2CCCCC2)C1)c1ccc(-c2cccc(F)c2)nc1` (relative stereo) [Example 64I, 6-(3-fluorophenyl)-N-{cis-3-[(2-piperidin-1-ylethyl)carbamoyl]cyclohexyl}nicotinamide], for which the IC50 amounted to 0.0111 µM.

Consider `O=C(N[C@@H]1CC[C@H](C(=O)O)C1)c1ccc(-c2cccc(F)c2)nc1` [Example 11a, (1S,3R)-3-({[6-(3-Fluorophenyl)pyridin-3-yl]carbonyl}amino)cyclopentanecarboxylic acid], for which the IC50 was found to be 0.125 µM.

Take `CN(C)C(=O)[C@H]1CC[C@@H](NC(=O)c2ccc(-c3cccc(F)c3)nc2)CC1` [Example 74, N-[cis-4-(Dimethylcarbamoyl)cyclohexyl]-6-(3-fluorophenyl)nicotinamide]: the IC50 came out at 0.0108 µM.

As for `N[C@H]1CCCC[C@@H]1NC(=O)[C@@H]1CCC[C@H](NC(=O)c2ccc(-c3cccc(F)c3)nc2)C1` (mixture of isomers) [Example 64B, N-[cis-3-{[(1S,2S)-2-aminocyclohexyl]carbamoyl}cyclohexyl]-6-(3-fluorophenyl)nicotinamide], the IC50 was 0.0646 µM. As for `CN1CCN(C(=O)C2(C)CCC(NC(=O)c3ccc(-c4cccc(F)c4)nc3)CC2)CC1` (stereo not drawn) [Example 118, 6-(3-Fluorophenyl)-N-{cis-4-methyl-4-[(4-methylpiperazin-1-yl)carbonyl]cyclohexyl}nicotinamide], the IC50 was 0.0512 µM. To `O=C(N[C@H]1CC[C@H](OCCO)CC1)c1ccc(-c2cccc(F)c2)nc1` [Example 89, 6-(3-Fluorophenyl)-N-[trans-4-(2-hydroxyethoxy)cyclohexyl]nicotinamide] belongs 0.00393 µM; to `N[C@H]1CCN(C(=O)[C@H]2CC[C@@H](NC(=O)c3ccc(-c4cccc(F)c4)nc3)C2)C1` [Example 16, N-[(1R,3S)-3-{[(3S)-3-Aminopyrrolidin-1-yl]carbonyl}cyclopentyl]-6-(3-fluorophenyl)nicotinamide], 0.0291 µM; to `N[C@@H]1CCN(C(=O)[C@H]2CC[C@H](NC(=O)c3ccc(-c4cccc(F)c4)nc3)CC2)C1` [Example 99, N-(trans-4-{[(3R)-3-Aminopyrrolidin-1-yl]carbonyl}cyclohexyl)-6-(3-fluorophenyl)nicotinamide], 0.0112 µM.

Consider `O=C(N[C@H]1CCC[C@@H](C(=O)NCCCO)C1)c1ccc(-c2cccc(F)c2)nc1` (relative stereo) [Example 64E, 6-(3-fluorophenyl)-N-{cis-3-[(3-hydroxypropyl)carbamoyl]cyclohexyl}nicotinamide], for which the IC50 stood at 0.0093 µM. To `O=C(N[C@H]1CC[C@H](C(=O)N2CCCC2)CC1)c1ccc(-c2cccc(F)c2)nc1` [Example 87, 6-(3-Fluorophenyl)-N-[trans-4-(pyrrolidin-1-ylcarbonyl)cyclohexyl]nicotinamide] belongs 0.00207 µM; to `N[C@@H]1CCCC[C@H]1NC(=O)[C@@H]1CCC[C@H](NC(=O)c2ccc(-c3cccc(F)c3)nc2)C1` (mixture of isomers) [Example 64C, N-[cis-3-{[(1R,2R)-2-aminocyclohexyl]carbamoyl}cyclohexyl]-6-(3-fluorophenyl)nicotinamide], 0.047 µM. To `O=C(N[C@H]1CC[C@@H](C(=O)O)C1)c1ccc(-c2cccc(F)c2)nc1` [Example 11b, (1R,3S)-3-({[6-(3-Fluorophenyl)pyridin-3-yl]carbonyl}amino)cyclopentanecarboxylic acid] belongs 0.0137 µM. To `CN1CCN(C2CCC(NC(=O)c3ccc(-c4cccc(F)c4)nc3)CC2)CC1` (single isomer, unassigned) [Example 51, 6-(3-Fluorophenyl)-N-[-4-(4-methylpiperazin-1-yl)cyclohexyl]nicotinamide] belongs 0.172 µM.

On to `O=C(NC1CCC(n2ccnc2)CC1)c1ccc(-c2cccc(F)c2)nc1` (stereo not shown) [Example 47, 6-(3-Fluorophenyl)-N-[4-(1H-imidazol-1-yl)cyclohexyl]nicotinamide], for which the IC50 stood at 0.023 µM. To `Cn1nnnc1O[C@H]1CC[C@H](NC(=O)c2ccc(-c3cccc(F)c3)nc2)CC1` [Example 82, 6-(3-Fluorophenyl)-N-{trans-4-[(1-methyl-1H-tetrazol-5-yl)oxy]cyclohexyl}nicotinamide] belongs 0.0126 µM; to `O=C(N[C@@H]1CC[C@H](C(=O)N2CC[C@H](O)C2)C1)c1ccc(-c2cccc(F)c2)nc1` [Example 15, 6-(3-Fluorophenyl)-N-[(1R,3S)-3-{[(3S)-3-hydroxypyrrolidin-1-yl]carbonyl}cyclopentyl]nicotinamide], 0.0103 µM; to `O=C(N[C@H]1CC[C@H](C(=O)O)CC1)c1ccc(-c2cccc(F)c2)nc1` [Example 84, trans-4-({[6-(3-fluorophenyl)pyridin-3yl]carbonyl}amino)cyclohexanecarboxylic acid], 0.0398 µM. To `C[C@]1(O)CC[C@H](NC(=O)c2ccc(-c3cccc(F)c3)nc2)CC1` [Example 115, 6-(3-Fluorophenyl)-N-(trans-4-hydroxy-4-methylcyclohexyl)nicotinamide] belongs 0.00874 µM; to `O=C(NC1CCC(N2CC[C@@H](O)C2)CC1)c1ccc(-c2cccc(F)c2)nc1` (single isomer, unassigned) [Example 60], 0.111 µM; to `Cc1nccn1[C@H]1CC[C@H](NC(=O)c2ccc(-c3cccc(F)c3)nc2)CC1` [Example 105, 6-(3-Fluorophenyl)-N-[trans-4-(2-methyl-1H-imidazol-1-yl)cyclohexyl]nicotinamide], 0.0147 µM.

Turning to `O=C(N[C@H]1CCC[C@H]1C(=O)O)c1ccc(-c2cccc(F)c2)nc1` [Example 8], the IC50 stood at 1.72 µM. To `O=C(N[C@H]1CC[C@@H](C(=O)N2CCC(O)CC2)CC1)c1ccc(-c2cccc(F)c2)nc1` [Example 68, 6-(3-Fluorophenyl)-N-{cis-4-[(4-hydroxypiperidin-1-yl)carbonyl]cyclohexyl}nicotinamide] belongs 0.0132 µM. Take `Cc1nccn1C[C@H]1CC[C@H](NC(=O)c2ccc(-c3cccc(F)c3)nc2)CC1` [Example 113, 6-(3-Fluorophenyl)-N-{trans-4-[(2-methyl-1H-imidazol-1-yl)methyl]cyclohexyl}nicotinamide]: the IC50 amounted to 0.00976 µM. To `CN(C)CCCNC(=O)[C@@H]1CCC[C@H](NC(=O)c2ccc(-c3cccc(F)c3)nc2)C1` (relative stereo) [Example 64F, N-[cis-3-{[3-(dimethylamino)propyl]carbamoyl}cyclohexyl]-6-(3-fluorophenyl)nicotinamide] belongs 0.0168 µM; to `CC(C)NC(=O)[C@@H]1CCC[C@H](NC(=O)c2ccc(-c3cccc(F)c3)nc2)C1` (relative stereo) [Example 34, 6-(3-Fluorophenyl)-N-[cis-3-(isopropylcarbamoyl)cyclohexyl]nicotinamide], 0.00832 µM; to `O=C(NC1CC1)c1ccc(-c2cccc(F)c2)nc1` [Example 6, N-Cyclopropyl-6-(3-fluoro-phenyl)-nicotinamide], 0.159 µM.

As to `O=C(N[C@H]1CC[C@H](C(=O)N2CCN(C3CC3)CC2)CC1)c1ccc(-c2cccc(F)c2)nc1` [Example 107, N-{trans-4-[(4-Cyclopropylpiperazin-1-yl)carbonyl]cyclohexyl}-6-(3-fluorophenyl)nicotinamide], the IC50 is 0.0311 µM. Turning to `O=C(N[C@H]1CC[C@H](CN2CCOCC2)CC1)c1ccc(-c2cccc(F)c2)nc1` [Example 110, 6-(3-Fluorophenyl)-N-[trans-4-(morpholin-4-ylmethyl)cyclohexyl]nicotinamide], the IC50 is 0.0059 µM. To `COCCNC1CCC(NC(=O)c2ccc(-c3cccc(F)c3)nc2)CC1` (single isomer, unassigned) [Example 54, 6-(3-Fluorophenyl)-N-{4-[(2-methoxyethyl)amino]cyclohexyl}nicotinamide] belongs 0.0872 µM; to `C[C@H]1CN(C(=O)[C@H]2CC[C@H](NC(=O)c3ccc(-c4cccc(F)c4)nc3)CC2)CCN1` [Example 101, 6-(3-Fluorophenyl)-N-(trans-4-{[(3S)-3-methylpiperazin-1-yl]carbonyl}cyclohexyl)nicotinamide], 0.0158 µM.
